Like-named read-outs stand apart in the source and are kept apart here.
Columns and labels:
[1] = system: Jurkat cells; test: MTS cell viability assay, Jurkat; format: cell-based, human; conditions: 72 hours, read-out: IC50 (± S.D.), Jurkat
Experimental: Cryopreserved tumor cells obtained from sterile lymph node biopsy samples from dogs with diffuse large B cell lymphoma (DLBCL) were cultured with 100 ng/mL of megaCD40L (Enzo Life Science, Plymouth Meeting, PA) as previously described, [27]. The human T-cell leukemia cell line, Jurkat, was from the American Type Culture Collection (ATCC, Manassas, VA) and cultured in RPMI1640 medium (Gibco/BRL, Grand Island, NY) containing 10% fetal bovine serum (FBS; Atlas Biologicals, Fort Collins, CO), 2-mercaptoethanol (Gibco/BRL), HEPES, L-glutamine, sodium pyruvate (Mediatech Inc., Manassas, VA), non-essential amino acids (Sigma Aldrich, St. Louis, MO), and Primocin (Invivogen, San Diego, CA). The canine DLBCL cell line CLBL1 obtained from Dr. Barbara Rütgen (University of Vienna, Austria), [29] and human DLBCL cell lines OCI-Ly3 [30], [31] and OCI-Ly10 [32] obtained from Dr. Anne Novak (Mayo Clinic Cancer Center, Rochester, MN) were cultured in complete Iscove’s Modified Dulbecco’s medium (IMDM) containing 20% FBS, L-glutamine, and Primocin. All cells were maintained at 37°C in a humidified 5% CO2 atmosphere. The following additional canine tumor cell lines were used to evaluate response to SINE compounds: C2, mast cell tumor line provided by Dr. George Caughey, UCSF, San Francisco, CA [33]; OSA16, osteosarcoma cell line, provided by Dr. Jaime Modiano, UM, Minneapolis, MN [34]; and 323610-3, malignant melanoma cell line, provided by Dr. Michael Kent, UCD, Davis, CA [35]. […]
(§1) Cell viability for lymphoid lines was determined by the MTS (3-(4, 5-dimethylthiazol-2-yl)-5-(3-carboxymethoxyphenyl)-2-(4-sulfophenyl)-2H-tetrazolium) assay using CellTiter 96® AQueous One Solution Cell Proliferation Assay Kit (Promega, Madison, WI). […] After 72 hours, 20 µL of MTS solution was added to each well and cells were incubated for another 4 hours before measuring absorbance at 490 nm using a Wallac Victor 1420 Multilabel Counter (Perkin Elmer, Waltham, MA). The IC50 of SINE was calculated using Prism 6 software (GraphPad Software, Inc., La Jolla, CA).

[2] = system: primary canine DLBCL cells; test: MTS cell viability assay, primary canine DLBCL samples; format: cell-based
Experimental: Cryopreserved tumor cells obtained from sterile lymph node biopsy samples from dogs with diffuse large B cell lymphoma (DLBCL) were cultured with 100 ng/mL of megaCD40L (Enzo Life Science, Plymouth Meeting, PA) as previously described, [27]. The human T-cell leukemia cell line, Jurkat, was from the American Type Culture Collection (ATCC, Manassas, VA) and cultured in RPMI1640 medium (Gibco/BRL, Grand Island, NY) containing 10% fetal bovine serum (FBS; Atlas Biologicals, Fort Collins, CO), 2-mercaptoethanol (Gibco/BRL), HEPES, L-glutamine, sodium pyruvate (Mediatech Inc., Manassas, VA), non-essential amino acids (Sigma Aldrich, St. Louis, MO), and Primocin (Invivogen, San Diego, CA). The canine DLBCL cell line CLBL1 obtained from Dr. Barbara Rütgen (University of Vienna, Austria), [29] and human DLBCL cell lines OCI-Ly3 [30], [31] and OCI-Ly10 [32] obtained from Dr. Anne Novak (Mayo Clinic Cancer Center, Rochester, MN) were cultured in complete Iscove’s Modified Dulbecco’s medium (IMDM) containing 20% FBS, L-glutamine, and Primocin. All cells were maintained at 37°C in a humidified 5% CO2 atmosphere. The following additional canine tumor cell lines were used to evaluate response to SINE compounds: C2, mast cell tumor line provided by Dr. George Caughey, UCSF, San Francisco, CA [33]; OSA16, osteosarcoma cell line, provided by Dr. Jaime Modiano, UM, Minneapolis, MN [34]; and 323610-3, malignant melanoma cell line, provided by Dr. Michael Kent, UCD, Davis, CA [35]. All cell lines were cultured in complete RPMI media containing 10% FBS, antibiotic/antimycotic, HEPES, sodium pyruvate, nonessential amino acids and Glutamax (media supplements from Gibco).
Cell viability for lymphoid lines was determined by the MTS (3-(4, 5-dimethylthiazol-2-yl)-5-(3-carboxymethoxyphenyl)-2-(4-sulfophenyl)-2H-tetrazolium) assay using CellTiter 96® AQueous One Solution Cell Proliferation Assay Kit (Promega, Madison, WI). Briefly, for lymphoid cell lines, 5×10^4 cells (or 1×10^5 primary DLBCL cells) were cultured in 100 µL of complete medium in 96-well plates in the presence of SINE compounds. After 72 hours, 20 µL of MTS solution was added to each well and cells were incubated for another 4 hours before measuring absorbance at 490 nm using a Wallac Victor 1420 Multilabel Counter (Perkin Elmer, Waltham, MA). The IC50 of SINE was calculated using Prism 6 software (GraphPad Software, Inc., La Jolla, CA).

[3] = system: OCI-Ly10 DLBCL cells; test: MTS cell viability assay, OCI-Ly10; format: cell-based, human; conditions: 72 hours, read-out: IC50 (± S.D.), OCI-Ly10
Experimental: (§2) Cryopreserved tumor cells obtained from sterile lymph node biopsy samples from dogs with diffuse large B cell lymphoma (DLBCL) were cultured with 100 ng/mL of megaCD40L (Enzo Life Science, Plymouth Meeting, PA) as previously described, [27]. The human T-cell leukemia cell line, Jurkat, was from the American Type Culture Collection (ATCC, Manassas, VA) and cultured in RPMI1640 medium (Gibco/BRL, Grand Island, NY) containing 10% fetal bovine serum (FBS; Atlas Biologicals, Fort Collins, CO), 2-mercaptoethanol (Gibco/BRL), HEPES, L-glutamine, sodium pyruvate (Mediatech Inc., Manassas, VA), non-essential amino acids (Sigma Aldrich, St. Louis, MO), and Primocin (Invivogen, San Diego, CA). […]
as §1

[4] = system: OCI-Ly3 DLBCL cells; test: MTS cell viability assay, OCI-Ly3; format: cell-based, human; conditions: 72 hours, read-out: IC50 (± S.D.), OCI-Ly3
Experimental: as §2, §1

[5] = Oral bioavailability; format: in vivo; conditions: in vivo, po
[6] = system: XPO1; test: XPO1 inhibition activity; format: biochemical
[7] = primary sample #5, 72 hours, read-out: IC50, DLBCL#5

Row | Compound | IC50 [1] | IC50 ([2]; mean of primary canine DLBCL samples (n = 6), 72 hours, read-out: IC50 (± S.D.), Canine DLBCLs) | IC50 ([2]; primary sample #1, 72 hours, read-out: IC50, DLBCL#1) | IC50 ([2]; primary sample #2, 72 hours, read-out: IC50, DLBCL#2) | IC50 ([2]; primary sample #3, 72 hours, read-out: IC50, DLBCL#3) | IC50 ([2]; primary sample #4, 72 hours, read-out: IC50, DLBCL#4) | IC50 [2, 7] | IC50 [3] | IC50 [4] | oral bioavailability [5] | XPO1 inhibition activity, fold less than the cis-isomer [6]
1 | COc1cc(-c2ncn(/C=C\C(=O)OC(C)C)n2)cc(C(F)(F)F)c1 [KPT-185] | 8.7 ± 0.7 nM | 13.3 ± 6.2 nM | 13.1 nM | 9 nM | 12.2 nM | 4.9 nM | 21.6 nM | 246 nM | 24.1 nM | limited oral bioavailability | –
2 | COc1cc(-c2ncn(/C=C/C(=O)OC(C)C)n2)cc(C(F)(F)F)c1 [KPT-185 trans] | > 1000 nM | – | – | – | – | – | > 1000 nM | – | – | – | ~100 fold

Source: publication PMC3913620, “Preclinical Evaluation of the Novel, Orally Bioavailable Selective Inhibitor of Nuclear Export (SINE) KPT-335 in Spontaneous Canine Cancer: Results of a Phase I Study” (PLoS ONE, 2014)
